Source: patent US8455620B2, “Cloning and expression of a novel phytase” (Feed Research Institute Chinese Academy of Agricultural …, priority 2006, dated 2013)
“Also recorded” adds a separate entry of the source. Read-outs that look alike come from different tables or passages of the source.

Assays:
[1] = system: r-AppA; format: biochemical, Yersinia intermedia; conditions: 1 mM, pH 4.5
[2] = Enzyme activity of r-AppA according to temperature and pH; format: biochemical
Experimental: (§1) A total of 72 transformants were analyzed for phytase activity by ferrous sulfate-molybdenum blue method. 950 μl of substrate solution (4 mM sodium phytase in 0.25M sodium acetate buffer, pH5.0) was added to 50 μl diluted enzyme solution, which was reacted at 37° C. for 30 minutes. Then, 1 mL of 10% TCA (trichloroacetic acid) solution was added to stop the reaction. As a control, TCA solution was added into the enzyme solution to inactivate the enzyme and then substrate solution was added. After the reaction has terminated, 2 mL of reagent C (0.576M acid sulfate, 1% ammonium molybdate, 7.32% Ferrous sulfate.7H2O) was added, and left for 10 minutes. The intensity of the blue color was measured at 700 nm, and activities in enzyme solution and in a control were measured. 1 unit of phytase activity was determined to be the enzyme amount releasing 1 μmol of phosphate for 1 minute. Two days after methanol induction, 11 transformants out of 72 produced phytase activity from 48 to 270 U/mL of medium. Obviously, the ORF obtained above, was a novel gene, which encoded a polypeptide with phytase activity. The polypeptide with phytase activity, which encoded by mature region of OFR, was named r-AppA.
(§2) The r-AppA purified through Sephacryl S-200 was investigated an enzyme activity of phytase, according to temperature and pH. The effect of pH on phytase activity was determined using the following buffer solutions: glycine-HCl, pH 1.5-3.5; Na acetate-acetic acid, pH 3.5-6.0; Tris-HCl, pH 6.0-8.5, and glycine-NaOH, pH 8.5-10. All buffers used for dilution contained 0.05% BSA and 0.05% Triton. As is shown in FIG. 2, the enzyme activity varied with pH. […] 70% of the enzyme activity was still maintained at pH 2.5, and 65% of the enzyme activity was still maintained at pH 5.5. […] And over 70% activity still remained at pH 1.0-2.0.
(§3) As is shown in FIG. 3A, the enzyme activity varied with temperature. The temperature optima were determined at the pH optimum (pH 4.5) ranging the temperature values from 20 to 80° C. […] As is shown in FIG. 3B, when the enzyme was left at 80° C. for 10 minutes, over 50% of the activity was remained, and 40% of the activity was remained, at 80° C. for 1 hour. Compared to AppA from E. coli, which was widely used in feed industry as a feed additive, the r-AppA are higher stability at higher temperatures.

[3] = Heat stability of r-AppA at 80° C.; format: physicochemical
Experimental: as §3

[4] = system: pepsin; assay: Protease resistance of r-AppA, incubation with pepsin; format: biochemical; conditions: 0.025 mg/ml phytase, 0.1 mg/ml pepsin, 37° C., 5 min to 2 h
Experimental: (§4) To determine the protease resistance, the purified phytase (0.025 mg/ml) was incubated with 0.1 mg/ml of pepsin and trypsin at 37° C. And then, sample incubated was collected respectively at 5 min, 10 min, 20 min, 30 min, 1 h, and 2 hs.

[5] = Specific activity of purified r-AppA, ferrous sulfate-molybdenum blue method; format: biochemical; conditions: r-AppA purified through Sephacryl S-200; pH 4.5; protein by Lowry method
Experimental: as §1, with “Two days after methanol induction, 11 transformants out of 72 produced phytase activity from 48 to 270 U/mL of medium. Obviously, the ORF obtained above, was a novel gene, which encoded a polypeptide with phytase activity. The polypeptide with phytase activity, which encoded by mature region of OFR, was named r-AppA.” left out
In order to determinate the specific activity, the concentration of the r-AppA purified through Sephacryl S-200 was determined by the Lowry method, and the enzyme activity of the r-AppA purified was determined by ferrous sulfate-molybdenum blue method at pH 4.5. As a result, the specific activity of r-AppA purified was 3960±248 U/mg, which is the highest specific activity, comparing to other phytases recorded previously.

[6] = system: trypsin; assay: Protease resistance of r-AppA, incubation with trypsin; format: biochemical; conditions: 0.025 mg/ml phytase, 0.1 mg/ml trypsin, 37° C., 5 min to 2 h
Experimental: as §4

[7] = pH stability of r-AppA; format: physicochemical; conditions: 37° C.
Experimental: as §2

For `[Na+]` [Na], the “Enzyme activity of r-AppA (control = 100)” value [1] was 95.

In the case of `[Ca+2]` [Ca], the “Enzyme activity of r-AppA (control = 100)” value [1] is reported as 98.

For `CCCCCCCCCCCCOS(=O)(=O)[O-].[Na+]` [SDS], the “Enzyme activity of r-AppA (control = 100)” value [1] was 9 and the “effect on enzyme activity of r-AppA, in words” value (“effect on enzyme activity” below) [1] was “almost lost”.

With `[Zn+2]` [Zn] the “Enzyme activity of r-AppA (control = 100)” value [1] was 44 and the “effect on enzyme activity” value ([1]; listed as Zn^2+) was “obviously inhibited; also recorded: strongly inhibited”.

With `[Mg+2]` [Mg] the “Enzyme activity of r-AppA (control = 100)” value [1] was 94.

With “r-AppA: polypeptide with phytase activity encoded by mature region of the ORF from Yersinia intermedia H-27, expressed in Pichia pastoris (SEQ ID NO: 3)” the “enzyme activity maintained (relative to maximum)” value ([2]; at pH 2.5) was 70%, the “temperature of highest activity (optimal temperature)” value ([2]; at pH 4.5, 20 to 80° C.) was 55 °C and the “enzyme activity maintained (relative to maximum)” value ([2]; at pH 5.5) was 65%. For the same compound, the “pH of highest activity (optimal pH)” value ([2]; buffers pH 1.5-10) was 4.5, the “activity remained (heat stability)” value ([3]; 80° C. for 10 minutes) was “over 50%” and the “activity remained (heat stability)” value ([3]; 80° C. for 1 hour) was 40%. For the same compound, the “phytase activity after incubation with pepsin” value [4] was “not significantly changed”, the “phytase activity after incubation with pepsin” value ([4]; listed as phytase) was “strong resistance” and the specific activity [5] was 3960±248 U/mg. The “phytase activity after incubation with trypsin” value [6] was “not significantly changed”, the “phytase activity after incubation with trypsin” value ([6]; listed as phytase) was “strong resistance” and the “activity remained (pH stability)” value ([7]; pH 1.0-2.0, 2 hours) was “over 70%”. The “activity remained (pH stability)” value ([7]; pH 2.5-10, 2 hours) was “over 85%”.

For `[Ni+2]` [Ni], the “Enzyme activity of r-AppA (control = 100)” value [1] was 98.

For `[Cu+2]` [Cu], the “Enzyme activity of r-AppA (control = 100)” value [1] was 61 and the “effect on enzyme activity” value ([1]; listed as Cu^2+) was “obviously inhibited; also recorded: strongly inhibited”.

In the case of `[Fe+2]` [Fe], the “Enzyme activity of r-AppA (control = 100)” value [1] is reported as 47 and the “effect on enzyme activity” value ([1]; listed as Fe^2+) is reported as “obviously inhibited; also recorded: strongly inhibited”.

In the case of `[Mn+2]` [Mn], the “Enzyme activity of r-AppA (control = 100)” value [1] is reported as 104 and the “effect on enzyme activity” value [1] is reported as “weakly enhanced”.

In the case of `[Li+]` [Li], the “Enzyme activity of r-AppA (control = 100)” value [1] is reported as 95.

In the case of `[K+]` [K], the “Enzyme activity of r-AppA (control = 100)” value [1] is reported as 99.

In the case of `[Ag+]` [Ag], the “Enzyme activity of r-AppA (control = 100)” value [1] is reported as 84.

In the case of `O=C(O)CN(CCN(CC(=O)O)CC(=O)O)CC(=O)O` [EDTA], the “Enzyme activity of r-AppA (control = 100)” value [1] is reported as 101 and the “effect on enzyme activity” value [1] is reported as “not significantly changed”.

With `[Co+2]` [Co] the “Enzyme activity of r-AppA (control = 100)” value [1] was 93.
